Our source for the MIC values is ChEMBL document CHEMBL2021893, “Synthesis, structure-activity relationship and in vitro anti-mycobacterial evaluation of 13-n-octylberberine derivatives” (2012).

≈ marks a conversion by molar mass, not a printed value.

Common to all, as to assay type: functional
The test system of test [1] is Mycobacterium tuberculosis. The experiment in a line: Antimycobacterial activity against multidrug-resistant Mycobacterium tuberculosis isolate 926 from Chinese tuberculosis patient measured 24 hrs post dose by microplate alamar blue assay. Particulars: isolate 926, 24 h. (Alamar Blue is a resazurin reagent that responds to reducing activity.)
Test [2] has as its system Mycobacterium tuberculosis. Put plainly: Antimycobacterial activity against multidrug-resistant Mycobacterium tuberculosis isolate 83 from Chinese tuberculosis patient measured 24 hrs post dose by microplate alamar blue assay. The conditions noted are these: isolate 83, 24 h.
Test [3] concerns Mycobacterium tuberculosis. The experiment in a line: Antimycobacterial activity against multidrug-resistant Mycobacterium tuberculosis isolate 44 from Chinese tuberculosis patient measured 24 hrs post dose by microplate alamar blue assay. The conditions noted are these: isolate 44, 24 h.
In test [4] the test system is Mycobacterium tuberculosis. The experiment in a line: Antimycobacterial activity against multidrug-resistant Mycobacterium tuberculosis isolate 164 from Chinese tuberculosis patient measured 24 hrs post dose by microplate alamar blue assay. The conditions noted are these: isolate 164, 24 h.
The test system of test [5] is Mycobacterium tuberculosis. Put plainly: Antimycobacterial activity against multidrug-resistant Mycobacterium tuberculosis isolate 431 from Chinese tuberculosis patient measured 24 hrs post dose by microplate alamar blue assay. The conditions noted are these: isolate 431, 24 h.

Usually MIC stands for the smallest concentration in the dilution series that meets the test's criterion for growth inhibition. A low value points to inhibition by little substance. `NNC(=O)c1ccncc1` [ISONIAZID]: the MIC in test [1] was determined as 32 µg/mL (≈ 233 µM); in test [2], 4 µg/mL (≈ 29.2 µM); in test [3] it was 4 µg/mL (≈ 29.2 µM); in test [4] it was 4 µg/mL (≈ 29.2 µM); in test [5], 64 µg/mL (≈ 467 µM).

Turning to `CO[C@H]1/C=C/O[C@@]2(C)Oc3c(C)c(O)c4c(O)c(c(/C=N/N5CCN(C)CC5)c(O)c4c3C2=O)NC(=O)/C(C)=C\C=C\[C@H](C)[C@H](O)[C@@H](C)[C@@H](O)[C@@H](C)[C@H](OC(C)=O)[C@@H]1C` [RIFAMPIN], the MIC is above 32 µg/mL in test [1]; above 64 µg/mL in test [2]; 64 µg/mL (≈ 77.8 µM) in test [3]; above 64 µg/mL in test [4]; above 64 µg/mL in test [5].

On to `CCCCCCCCc1c2[n+](cc3c(OCC)c(OC)ccc13)CCc1cc(OCC)c(OCC)cc1-2.[Cl-]`, for which the MIC in test [1] worked out at 0.125 µg/mL; in test [2] it was 0.5 µg/mL; in test [3], 0.25 µg/mL; in test [4], 0.125 µg/mL; in test [5], 0.5 µg/mL.

Regarding `CCCCCCCCc1c2[n+](cc3c(OC)c(OC)ccc13)CCc1cc3c(cc1-2)OCO3.[Cl-]`, the MIC in test [2], in test [3], in test [4] and in test [5] was 4 µg/mL throughout.

In the case of `CCCCCCCCc1c2[n+](cc3c(OCc4ccccc4)c(OC)ccc13)CCc1cc(OCc3ccccc3)c(O)cc1-2.[Cl-]`, the MIC came to 0.5 µg/mL in test [1]; 1 µg/mL in test [2]; 0.5 µg/mL in test [3]; 1 µg/mL in test [4]; 0.25 µg/mL in test [5].

On to `CCCCCCCCc1c2[n+](cc3c(OC)c(OC)ccc13)CCc1cc(OCC)c(OCC)cc1-2.[Cl-]`, for which the MIC in test [1], in test [2], in test [3] and in test [4] was 4 µg/mL throughout.
